This passage reports activation, EC50 and Emax results from US20240150377A1, “MODULATORS OF CYSTIC FIBROSIS TRANSMEMBRANE CONDUCTANCE REGULATOR” (VERTEX PHARMACEUTICALS INCORPORATED, priority 2020, published 2024).

This test deals with T1, CFTR (Homo sapiens, UniProt P13569, DEL508-508).
T1 construct: endogenous in cells; host or cells: primary human bronchial epithelial cells from CF subjects (F508del/MF-HBE), differentiated at air-liquid interface
Briefly: HBE assay: Ussing chamber assay of CFTR-mediated short-circuit currents. The test is classed as cell-based. The gist of the method:
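CFTR-mediated Isc (μA/cm²) equals the peak response to apical 20 μM forskolin minus the residual after a 20 μM each BPO/GlyH-101/CFTR inhibitor 172 cocktail, recorded in Ussing chambers at Vhold 0 mV, 37 °C, pH 7.4, with 30 μM apical amiloride. Cells were F508del/MF HBE cultures preincubated 18-24 h with corrector (concentration range or 10 μM) plus 1 μM ivacaftor in 20% human serum.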

Where [1] appears, read: HBE assay, 10 μM, read-out: HBE Activity at 10 μM (%).
The mark [2] stands for this setting: Table 12, read-out: HBE Max Activity (%).
[3] abbreviates: Table 11, at 10 μM, read-out: HBE Activity at 10 μM (%).
[4] abbreviates: Table 11, read-out: HBE Max Activity (%).
Where [5] appears, read: Table 10, read-out: HBE Max activity (%).
The mark [6] stands for this setting: Table 13, read-out: HBE Max Activity (%).
The mark [7] stands for this setting: Table 13, at 10 μM, read-out: HBE Activity at 10 μM (%).
Where [8] appears, read: HBE assay, read-out: HBE Max activity (%).
Setting [9] is: Table 10, at 10 μM, read-out: HBE activity at 10 (μM) (%).

As usually defined, the EC50 is the concentration that produces a half-maximal response.

Like-named read-outs stand apart in the source and are kept apart here.

T1 sequence (P13569 with tags, fused parts or gaps DEL508-508): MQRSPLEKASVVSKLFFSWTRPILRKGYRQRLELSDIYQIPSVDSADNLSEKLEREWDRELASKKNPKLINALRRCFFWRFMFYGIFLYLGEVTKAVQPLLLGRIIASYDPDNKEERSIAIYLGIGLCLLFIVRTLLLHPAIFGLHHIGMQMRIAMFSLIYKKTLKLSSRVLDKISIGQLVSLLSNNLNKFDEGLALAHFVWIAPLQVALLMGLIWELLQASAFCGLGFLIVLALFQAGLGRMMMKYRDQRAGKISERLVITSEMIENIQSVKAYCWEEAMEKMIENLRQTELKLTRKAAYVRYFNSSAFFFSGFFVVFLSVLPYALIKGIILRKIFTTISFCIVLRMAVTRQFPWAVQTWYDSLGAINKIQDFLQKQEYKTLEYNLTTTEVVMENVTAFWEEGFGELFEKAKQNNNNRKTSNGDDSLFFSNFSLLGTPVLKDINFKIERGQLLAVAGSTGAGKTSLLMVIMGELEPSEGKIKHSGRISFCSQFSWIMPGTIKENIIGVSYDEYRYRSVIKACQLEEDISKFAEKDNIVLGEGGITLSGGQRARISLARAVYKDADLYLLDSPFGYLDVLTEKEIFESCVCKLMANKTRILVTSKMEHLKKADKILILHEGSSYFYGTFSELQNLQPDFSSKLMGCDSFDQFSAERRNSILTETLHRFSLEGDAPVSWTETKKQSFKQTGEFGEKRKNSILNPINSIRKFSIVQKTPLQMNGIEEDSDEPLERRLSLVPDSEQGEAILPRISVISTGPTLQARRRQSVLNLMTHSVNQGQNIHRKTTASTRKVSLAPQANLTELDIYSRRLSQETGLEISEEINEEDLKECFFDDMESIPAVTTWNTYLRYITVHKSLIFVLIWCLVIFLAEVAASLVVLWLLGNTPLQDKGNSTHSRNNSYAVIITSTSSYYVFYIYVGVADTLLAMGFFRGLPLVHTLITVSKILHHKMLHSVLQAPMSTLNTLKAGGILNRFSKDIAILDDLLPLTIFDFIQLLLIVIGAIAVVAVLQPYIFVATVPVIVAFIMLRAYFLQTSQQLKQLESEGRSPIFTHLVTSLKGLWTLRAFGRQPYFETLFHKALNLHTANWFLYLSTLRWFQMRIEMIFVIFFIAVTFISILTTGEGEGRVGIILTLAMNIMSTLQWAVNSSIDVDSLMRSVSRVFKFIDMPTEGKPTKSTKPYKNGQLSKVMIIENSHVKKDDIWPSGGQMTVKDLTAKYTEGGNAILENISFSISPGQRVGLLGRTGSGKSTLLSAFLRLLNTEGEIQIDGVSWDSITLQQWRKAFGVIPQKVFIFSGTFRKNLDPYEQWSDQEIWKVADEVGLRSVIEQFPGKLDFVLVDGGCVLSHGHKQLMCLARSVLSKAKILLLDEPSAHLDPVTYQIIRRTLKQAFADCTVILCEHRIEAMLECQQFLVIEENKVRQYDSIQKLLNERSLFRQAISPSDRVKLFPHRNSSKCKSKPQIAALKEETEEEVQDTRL

Take `Cc1cccc(C)c1-c1cc2nc(n1)NS(=O)(=O)c1cccc(c1)C(=O)N(Cc1ncc(OC3CCC3)cn1)[C@H](CCC(C)(C)C)CO2` [Compound 1486]: under setting [1], the activation at 10 µM was > 60%. Take `Cc1cccc(C)c1-c1cc2nc(n1)NS(=O)(=O)c1cccc(c1)C(=O)N(Cc1cccc(N3CCCC3(C)C)n1)[C@H](CC(C)(C)C)CO2` [Compound 592]: the EC50 (Table 12, read-out: HBE EC50) lay in the range of 1 to 3 µM. For the same compound, under setting [2], the Emax was > 60%. On to `Cc1cccc(C(C)C)c1-c1cc2nc(n1)NS(=O)(=O)c1cccc(c1)C(=O)N(Cc1ccc(N3CCOCC3)cn1)[C@H](CC(C)(C)C)CO2` [Compound 821], for which the activation at 10 µM under setting [3] was > 60%. Further, the EC50 (Table 11, read-out: HBE EC50) was < 1 µM. Moreover, the Emax under setting [4] was > 60%. As for `COCCN(C)c1cnc(CN2C(=O)c3cccc(c3)S(=O)(=O)Nc3nc(cc(-c4c(C)cccc4C)n3)OC[C@H]2CC(C)(C)C)cn1` [Compound 900], the EC50 (Table 11, read-out: HBE EC50) is 1 to 3 µM. In addition, the Emax under setting [4] was > 60%. `Cc1cccc(C)c1-c1cc2nc(n1)NS(=O)(=O)c1cccc(c1)C(=O)N(Cc1ccnc(N3CCC[C@H]3C(C)C)n1)[C@H](CC(C)(C)C)CO2` (stereo in doubt) [Compound 1476]: the concentration giving a half-maximal response (EC50) (HBE assay, read-out: HBE EC50) was < 1 µM. In the case of `Cc1cccc(C)c1-c1cc2nc(n1)NS(=O)(=O)c1cccc(c1)C(=O)N(Cc1cccc(-c3c[nH]nc3C3CC3)c1)[C@H](CC(C)(C)C)CO2` [Compound 308], the 50% effective concentration (EC50) (Table 10, read-out: HBE EC50) is < 1 µM. Moreover, the Emax under setting [5] was > 60%. Take `Cc1cccc(C)c1-c1cc2nc(n1)NS(=O)(=O)c1cccc(c1)C(=O)N(Cc1cccc(Oc3ccccc3)n1)[C@H](CC(C)(C)C)CO2` [Compound 126, (11R)-6-(2,6-Dimethylphenyl)-11-(2,2-dimethylpropyl)-2,2-dioxo-12-[(6-phenoxy-2-pyridyl)methyl]-9-oxa-2λ^6-thia-3,5,12,19-tetrazatricyclo[12.3.1.14,8]nonadeca-1(18),4(19),5,7,14,16-hexaen-13-one]: the 50% effective concentration (EC50) (HBE EC50 (μM), Table 10) was < 1 µM. For the same compound, the Emax (read-out: HBE Max activity (%)) was > 60%. With `Cc1cccc(C)c1-c1cc2nc(n1)NS(=O)(=O)c1cccc(c1)C(=O)N(CC1CCOC(C)(C)C1)[C@H](CC(C)(C)C)CO2` (single isomer, unassigned) [Compound 28], the activation at 10 µM under setting [3] is > 60%.

For `Cc1cccc(C)c1-c1cc2nc(n1)NS(=O)(=O)c1cccc(c1)C(=O)N(Cc1cccc(CCC(C)(C)C)n1)[C@H](CC(C)(C)C)CO2` [Compound 582], the EC50 (Table 12, read-out: HBE EC50) is < 1 µM. Further, the Emax under setting [2] was > 60%. On to `CC(C)=Cc1cccc(CN2C(=O)c3cccc(c3)S(=O)(=O)Nc3nc(cc(-c4c(C)cccc4C)n3)OC[C@H]2CC(C)(C)C)n1` [Compound 589], for which, under “Table 12, read-out: HBE EC50”, the EC50 is < 1 µM. Also, under setting [2], the Emax is > 60%.

In the case of `Cc1cccc(C)c1-c1cc2nc(n1)NS(=O)(=O)c1cccc(c1)C(=O)N(Cc1cccc(N3CCC[C@H]3CO)n1)[C@H](CC(C)(C)C)CO2` [Compound 279], the EC50 (Table 12, read-out: HBE EC50) was < 1 µM. Further, the Emax under setting [2] is > 60%. `Cc1cccc(C)c1-c1cc2nc(n1)NS(=O)(=O)c1cccc(c1)C(=O)N(Cc1ncc(N3CCCC3(C)C)cn1)[C@H](CC(C)(C)C)CO2` [Compound 537]: the concentration for a half-maximal effect (EC50) (Table 13, read-out: HBE EC50) is < 1 µM. For the same compound, under setting [6], the Emax is > 60%. With `Cc1cccc(C)c1-c1cc2nc(n1)NS(=O)(=O)c1cccc(c1)C(=O)N(CC(=O)NC1CCCC1)[C@H](CC(C)(C)C)CO2` [Compound 198], under setting [7], the activation at 10 µM is > 600%. With `Cc1cccc(C)c1-c1cc2nc(n1)NS(=O)(=O)c1cccc(c1)C(=O)N(Cc1ncc(C3CCOCC3)cn1)[C@H](CC(C)(C)C)CO2` [Compound 634], where the note is “Table 11, read-out: HBE EC50”, the 50% effective concentration (EC50) is < 1 µM. Under setting [4], the Emax is > 60%.

In the case of `Cc1cccc(C)c1-c1cc2nc(n1)NS(=O)(=O)c1cccc(c1)C(=O)N(Cc1cccc(OCC(C)(C)C)n1)[C@H](CC(C)(C)C)CO2` [Compound 469], the Emax under setting [5] was > 60%. `Cc1cccc(C)c1-c1cc2nc(n1)NS(=O)(=O)c1cccc(c1)C(=O)N(Cc1ncc(OC3CCCC3)cn1)[C@H](CC1CC1)CO2` [Compound 1463]: for the setting “HBE assay, read-out: HBE EC50”, the EC50 was < 1 µM. Under setting [8], the Emax is > 60%. Consider `Cc1cc(C2COCCO2)cnc1CN1C(=O)c2cccc(c2)S(=O)(=O)Nc2nc(cc(-c3c(C)cccc3C)n2)OC[C@H]1CC(C)(C)C` (stereo partly shown) [Compound 1436], for which the activation at 10 µM under setting [1] was > 60%. The EC50 (HBE assay, read-out: HBE EC50) was < 1 µM. The Emax under setting [8] was > 60%. With `Cc1cccc(C)c1-c1cc2nc(n1)NS(=O)(=O)c1cccc(c1)C(=O)N(CC1CC(C)(C)CO1)[C@H](CC(C)(C)C)CO2` (stereo partly drawn) [Compound 21, (11R)-12-[(4,4-Dimethyloxolan-2-yl)methyl]-6-(2,6-dimethylphenyl)-11-(2,2-dimethylpropyl)-9-oxa-2λ^6-thia-3,5,12,19-tetraazatricyclo[12.3.1.14,8]nonadeca-1(17),4(19),5,7,14(18),15-hexaene-2,2,13-trione], the activation at 10 µM under setting [3] was > 60%.

Consider `Cc1cccc(C)c1-c1cc2nc(n1)NS(=O)(=O)c1cccc(c1)C(=O)N(Cc1ncc(OC(F)F)cn1)[C@H](CC(C)(C)C)CO2` [Compound 1430], for which the EC50 (HBE assay, read-out: HBE EC50) is < 1 µM. Under setting [8], the Emax was > 60%.

Regarding `Cc1cccc(C)c1-c1cc2nc(n1)NS(=O)(=O)c1cccc(c1)C(=O)N(Cc1ncc(N3CCC(C)(C)CC3)cn1)[C@H](CC(C)C)CO2` [Compound 605], the 50% effective concentration (EC50) (Table 11, read-out: HBE EC50) was in the range of 3 to 30 µM. The Emax under setting [4] was > 60%.

Take `COCCN(c1cccc(CN2C(=O)c3cccc(c3)S(=O)(=O)Nc3nc(cc(-c4c(C)cccc4C)n3)OC[C@H]2CC(C)(C)F)n1)C(C)C` [Compound 1508]: under setting [1], the activation at 10 µM is > 60%. With `Cc1cccc(C)c1-c1cc2nc(n1)NS(=O)(=O)c1cccc(c1)C(=O)N(Cc1cc3ccoc3cn1)[C@H](CC(C)(C)C)CO2` [Compound 998], under setting [7], the activation at 10 µM was > 600%. Take `Cc1cccc(C)c1-c1cc2nc(n1)NS(=O)(=O)c1cccc(c1)C(=O)N(Cc1ccc(C(C)(C)C)cc1O)[C@H](CC(C)(C)C)CO2` [Compound 433]: the activation at 10 µM under setting [7] is > 600%.

On to `Cc1cccc(C)c1-c1cc2nc(n1)NS(=O)(=O)c1cccc(c1)C(=O)N(Cc1cccc(-n3ccc(C(C)(C)C)n3)n1)[C@H](CC(C)(C)C)CO2` [Compound 470], for which, under setting [5], the Emax is > 60%. As to `Cc1cccc(C)c1-c1cc2nc(n1)NS(=O)(=O)c1cccc(c1)C(=O)N(Cc1ccc(OCC(C)C)cn1)[C@H](CC(C)(C)C)CO2` [Compound 747], under setting [3], the activation at 10 µM was > 60%. Regarding `Cc1cccc(C)c1-c1cc2nc(n1)NS(=O)(=O)c1cccc(c1)C(=O)N(Cc1ncc(N3C4CCC3COC4)cn1)[C@H](CC(C)(C)C)CO2` [Compound 563], for the setting “HBE EC50 (μM), Table 12”, the EC50 is < 1 µM. For the same compound, the Emax under setting [2] was > 60%. Regarding `Cc1cccc(C)c1-c1cc2nc(n1)NS(=O)(=O)c1cccc(c1)C(=O)N(CC1CCC(C)(C)CO1)[C@H](CC(C)(C)C)CO2` (single isomer, unassigned) [Compound 23], where the note is “Table 11, read-out: HBE EC50”, the EC50 is < 1 µM. On to `Cc1cccc(C)c1-c1cc2nc(n1)NS(=O)(=O)c1cccc(c1)C(=O)N(CC1CCC(C)(C)CO1)[C@H](CC(C)(C)C)CO2` (single isomer, unassigned) [Compound 22], for which the EC50 (Table 11, read-out: HBE EC50) is < 1 µM. The Emax under setting [4] was > 60%.

As for `Cc1cccc(C)c1-c1cc2nc(n1)NS(=O)(=O)c1cccc(c1)C(=O)N(Cc1ncc(N3C[C@H](C)C[C@@H](C)C3)cn1)[C@H](CC(C)(C)C)CO2` [Compound 716], the EC50 (Table 11, read-out: HBE EC50) was 3 to 30 µM. Also, under setting [4], the Emax was > 60%. Regarding `Cc1cccc(C)c1-c1cc2nc(n1)NS(=O)(=O)c1cccc(c1)C(=O)N(CC1CCC(N3CCOCC3)CC1)[C@H](CC(C)(C)C)CO2` (single isomer, unassigned) [Compound 154], under “Table 10, read-out: HBE EC50”, the EC50 is < 1 µM. Moreover, the Emax under setting [5] is > 60%. With `COc1c(F)cc(CN2C(=O)c3cccc(c3)S(=O)(=O)Nc3nc(cc(-c4c(C)cccc4C)n3)OC[C@H]2CC(C)(C)C)cc1F` [Compound 769], the activation at 10 µM under setting [9] was > 60%. For the compound `Cc1cccc(C)c1-c1cc(O)nc(NS(=O)(=O)c2cccc(C(=O)N(Cc3cccc(N4CCC[C@]4(C)C(=O)O)n3)[C@@H](C)CC(C)(C)C)c2)n1` [Compound 277], the activation at 10 µM (Table 12, at 10 μM, read-out: HBE Activity at 10 μM (%)) is > 600%. Regarding `Cc1cccc(C)c1-c1cc2nc(n1)NS(=O)(=O)c1cccc(c1)C(=O)N(Cc1ccnc(N3CCOCC3)c1)[C@H](CC(C)(C)C)CO2` [Compound 466], the activation at 10 µM under setting [9] is > 60%. The Emax under setting [5] was > 60%. In the case of `Cc1cccc(C)c1-c1cc2nc(n1)NS(=O)(=O)c1cccc(c1)C(=O)N(Cc1ncc(OC(C)C)cn1)[C@H](CC1(C(F)(F)F)CC1)CO2` [Compound 1120], where the note is “Table 13, read-out: HBE EC50”, the EC50 is < 1 µM. Further, under setting [6], the Emax was > 60%. On to `CNc1ccnc(CN2C(=O)c3cccc(c3)S(=O)(=O)Nc3nc(cc(-c4c(C)cccc4C)n3)OC[C@H]2CC(C)(C)C)n1` [Compound 647], for which, under “Table 11, read-out: HBE EC50”, the EC50 is < 1 µM. Also, under setting [4], the Emax was > 60%. For `Cc1cccc(C)c1-c1cc2nc(n1)NS(=O)(=O)c1cccc(c1)C(=O)N(Cc1cn(C)nc1C)[C@H](CC(C)(C)C)CO2` [Compound 822], the activation at 10 µM under setting [9] is > 60%. With `Cc1cccc(C)c1-c1cc2nc(n1)NS(=O)(=O)c1cccc(c1)C(=O)N(Cc1cc(N3CCOCC3)ccn1)[C@H](CC(C)(C)C)CO2` [Compound 375], for the setting “Table 10, read-out: HBE EC50”, the half-maximal effective concentration (EC50) is < 1 µM. The Emax under setting [5] is > 60%.
